Entries after “also recorded” stand apart in the source; their conditions may differ. Where two headings read alike, the source gives them in different places.
How the values were obtained:
PDI [1] = biological target: T1, PDI (Homo sapiens, UniProt P07237); experiment: Di-eosin-GSSG disulfide reductase assay, PDI; assay type: biochemical
T1 construct: FLAG; made in house; host or cells: Escherichia coli Origami B (DE3)
Procedure: (§1) Di-eosin-GSSG disulfide reductase assay. The probe di-eosin glutathione disulfide, di-eosin-GSSG, was prepared by incubating 100 μM of GSSG with 1 mM of eosin isothiocyanate in 100 mM potassium phosphate containing 2 mM EDTA (pH 7.4), at 25° C. overnight in the dark. The mixture was passed down a PD-10 column and different fractions were collected. A fold change of fluorescence (Ex: 520 nm, Em: 550 nm) was calculated using samples subjected to either vehicle or 20 mM of DTT. Any fraction with a fold change >5 was kept. Using a stock of 10 mM eosin isothiocyanate, a standard curve was generated and concentration of samples were determined accordingly. Di-eosin-GSSG cleavage of purified thiol isomerases and PDI domains was monitored in a 96-well fluorescence plate format. PDI, CGXC-PDI variants, ERp5, ERp57, ERp46 and PDI domains were assayed at 50 nM in the presence or absence of the indicated small molecules. The assay included a thiol isomerase assay buffer (39 mM KH2PO4, 61 mM K2HPO4, 2 mM EDTA, 5 M DTT, pH 7.4) and 150 nM of the di-eosin-GSSG probe. The increase in fluorescence was determined for 60 min by excitation at 520 nm and emission at 550 nm in a Synergy Biotek 4. The reduction of 150 nM di-eosin-GSSG by 5 μM DTT in the presence or absence of mentioned small molecule or proteins served as a negative control.

PDI [2] = biological target: T1, PDI; experiment: Insulin reductase assay; assay type: biochemical; details: 20 μM
Procedure: Insulin reductase assay. Insulin was prepared by mixing 12.5 mg/mL insulin in 50 mM Tris-HCl, pH 8. 1 M HCl was carefully added to drop the pH to 2.0 for solution clarification. Once the solution clarifies, 1 M NaOH was added to rapidly adjust the pH back to 8.0. The solution was then adjusted to 1.5 mM (10 mg/mL) with 50 mM Tris-HCl, aliquoted and stored in −20° C. until use. 2× concentrations of thiol isomerases were prepared (final concentrations as indicated in each assay) and mixed with 1.2 mM DTT (final 0.3 mM) and 0.4 mM insulin (final 0.1 mM) using a thiol isomerase activity assay buffer. Insulin precipitation from enzyme-mediated reduction was assayed in 96-well clear bottom plates at 650 nm absorption.

[3] = system: PDI domain fragments (a, a′, ab, abb′, b′xa′); experiment: Di-eosin-GSSG assay on isolated PDI domain fragments; assay type: biochemical; details: for inhibition of isolated a′ domain cleavage of di-eosin-GSSG: 20 μM
Procedure: as §1

[4] = system: recombinant PDI, ERp57, and ERp5; experiment: Di-eosin-GSSG assay, thiol isomerases at 20 μM compound; assay type: biochemical; details: 15 minute incubation
[5] = system: thrombus formation in carotid artery after FeCl3; experiment: Ferric chloride thrombosis model; assay type: in vivo, C57Bl/6J mice; details: punicalagin by oral gavage
Procedure: Wildtype C57Bl/6J mice were exposed to 100 μg/g punicalagin via oral gavage (n=5) or vehicle (n=7). The carotid artery was surgically isolated, exposed to 10% w/v FeCl3 for 3 min, and visualized by fluorescence microscopy. Time to occlusion was monitored.
Ferric chloride thrombosis model. Thrombus formation induced by ferric chloride was assayed as previously described in Li W, et al. Circ. Res. 115:997-1006, 2014. The mice were treated by oral gavage with 100 μg/g punicalagin or vehicle control for 90 min prior to injury. Before the 90 min time point, the mice were anesthetized with a cocktail of 125 mg/kg ketamine and 12 mg/kg xylazine. The left jugular vein was cannulated for infusion of a DyLight 649 conjugated antibody against GPIbβ (Emfret Analytics; 0.1 μg/g) and 50 mg/kg pentobarbital for maintenance anesthetics. […] Thrombi formation was observed using a 10×0.3 NA water immersion objective mounted to an AX-70 fluorescence microscope (Olympus Japan) equipped with a CCD camera (ORCA Flash 4.0, Hamamatsu Photonics, Japan). Data were analyzed by Slidebook 6.0 (Intelligent Imaging Innovations).
Punicalagin inhibits thrombus formation. […] The ability of orally delivered punicalagin to inhibit thrombus formation following vascular injury was assessed. […] Vessel patency was visualized by fluorescence microscopy using anti-GPIbβ antibody to monitor for vascular occlusion. […]

SARS-CoV-2 M^pro [6] = biological target: T2, SARS-CoV-2 M^pro (Severe acute respiratory syndrome coronavirus 2, UniProt P0DTD1)
SARS-CoV-2 = details: cited from earlier work
[7] = system: bleeding following tail clip; experiment: Tail clip assay of hemostasis; details: punicalagin ingestion
PDI [8] = biological target: T1, PDI; experiment: SDS-PAGE molecular weight shift (alkylation of PDI free thiols); assay type: biochemical
Excerpt: FIG. 5 is an image of gel showing detection of PDI free thiol by the labeling of acetamido maleimidylstilbene disulfonic acid (AMS), which shifts the protein to a higher apparent molecular weight.
4-acetomido-4′-maleimidylstilbene-2,2′ disulfonic acid (AMS), which shifts the mass of the protein by 500 Da for every cysteine alkylated, was used as a positive control. […] N-ethylmaleimide (NEM) was used for a control experiment because covalent alkylation of the free thiols will expectedly prevent PDI activity (FIG. 6A).

ERp5 = biological target: T3, ERp5 (Homo sapiens, UniProt Q15084); experiment: Di-eosin-GSSG disulfide reductase assay, ERp5; assay type: biochemical; details: 20 μM
T3 construct: recombinant His-tagged full-length ERp5, ERp72; His-tag; made in house; host or cells: Escherichia coli Origami B (DE3)
T3 sequence (Q15084 20-440): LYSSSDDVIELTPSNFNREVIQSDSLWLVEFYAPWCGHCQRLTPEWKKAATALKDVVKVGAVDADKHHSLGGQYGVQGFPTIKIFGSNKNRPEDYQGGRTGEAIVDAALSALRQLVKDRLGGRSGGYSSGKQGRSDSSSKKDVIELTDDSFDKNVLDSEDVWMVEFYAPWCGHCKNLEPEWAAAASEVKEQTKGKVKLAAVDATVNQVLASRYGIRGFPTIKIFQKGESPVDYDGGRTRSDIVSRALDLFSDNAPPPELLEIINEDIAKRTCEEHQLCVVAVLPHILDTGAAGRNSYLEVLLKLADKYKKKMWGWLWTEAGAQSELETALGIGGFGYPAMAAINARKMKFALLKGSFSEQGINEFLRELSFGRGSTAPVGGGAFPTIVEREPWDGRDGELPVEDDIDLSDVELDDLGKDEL
Excerpt: Recombinant protein purification. Recombinant ‘double-tagged’ (streptavidin-binding protein-tagged and FLAG-tagged) full-length PDI, ERp57, recombinant His-tagged full-length ERp5, ERp72, PDI domain fragments, and PDI mutant were cloned into a pET-15b vector at the NdeI and BamHI sites and transformed into Escherichia coli Origami B (DE3) cells (EMD Chemicals). The recombinant proteins were expressed and isolated by affinity chromatography with complete His-Tag purification resin (Roche Applied Science) or Pierce High-Capacity Streptavidin Agarose beads and purified on a Superdex 200 (GE Healthcare).
Di-eosin-GSSG disulfide reductase assay. […] Any fraction with a fold change >5 was kept.

SARS-CoV-2 M^pro [9] = biological target: T2, SARS-CoV-2 M^pro; details: cited from earlier work
platelets = details: cited from earlier work
[10] = Table 1, IC50 curves on PDI activity (FIGS. 13B-E, 17A-E), read-out: Relative PDI inhibition

T1 sequence (P07237 18-508): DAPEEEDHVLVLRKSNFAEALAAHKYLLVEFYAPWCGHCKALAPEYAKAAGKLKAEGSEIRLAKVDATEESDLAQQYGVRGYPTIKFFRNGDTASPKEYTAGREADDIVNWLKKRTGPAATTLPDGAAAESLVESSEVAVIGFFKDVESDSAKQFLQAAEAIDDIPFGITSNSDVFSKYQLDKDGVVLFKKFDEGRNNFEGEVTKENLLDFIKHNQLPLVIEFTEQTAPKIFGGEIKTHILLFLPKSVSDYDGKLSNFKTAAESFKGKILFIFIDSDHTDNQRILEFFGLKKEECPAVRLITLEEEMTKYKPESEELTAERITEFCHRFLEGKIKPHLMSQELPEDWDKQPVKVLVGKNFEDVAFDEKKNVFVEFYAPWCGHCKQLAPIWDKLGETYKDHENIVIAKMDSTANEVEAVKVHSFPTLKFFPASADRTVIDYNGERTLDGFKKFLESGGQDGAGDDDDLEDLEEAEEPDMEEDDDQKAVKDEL

Row | Compound | IC50 (PDI [1]; [10]) [µM] | inhibition of isolated a′ domain cleavage of di-eosin-GSSG [3] | inhibition of thiol isomerases (PDI, ERp57, ERp5) in words [4] | Inhibition of viral replication (cell system in which shown) (SARS-CoV-2) | inhibition of PDI (in words) (PDI [1]) | other results
1 | O=C1O[C@H]2[C@@H]3OC(=O)c4cc(O)c(O)c(O)c4-c4c(O)c(O)c5oc(=O)c6c(c(O)c(O)c7oc(=O)c4c5c76)-c4c(cc(O)c(O)c4O)C(=O)OC[C@H]3OC(O)[C@@H]2OC(=O)c2cc(O)c(O)c(O)c2-c2c1cc(O)c(O)c2O (mixture of isomers) [Punicalagin] | 19 | inhibited the ability of isolated a′ domain to cleave di-eosin-GSSG | strong inhibition of thiol isomerases | 293T-hACE2 and NIC-H460 | – | inhibition of the ability of PDI to reduce insulin (PDI [2]): inhibited the ability of PDI to reduce insulin; inhibition of thiol isomerases (PDI, ERp57, ERp5) in words ([4]; listed as punicalagin): strong thiol isomerase inhibition; vessels that never occluded ([5]; 10% FeCl3 for 3 min): ~50%; time for occlusion of vessels that clotted ([5]; compared to controls): consistently prolonged; IC50 (SARS-CoV-2 M^pro [6]; read-out: SARS-CoV-2 M^pro inhibition; literature values (Table 2); cited from earlier work): 5.7 µM; inhibition of SARS-CoV-2 / infection (in words) (SARS-CoV-2): inhibits both SARS-CoV-2 M^pro and omicron variants of SARS-CoV-2 infection; cessation of bleeding, Kaplan Meier curves [7]: prolonged bleeding; total bleeding time ([7]; 1 mm diameter tail transection): 110 s
2 | CC(=O)Nc1ccc(C=Cc2ccc(N3C(=O)C=CC3=O)cc2S(=O)(=O)O)c(S(=O)(=O)O)c1 [AMS, 4-acetomido-4′-maleimidylstilbene-2,2′ disulfonic acid, reference compound] | – | – | – | – | – | shift in molecular weight of PDI in SDS polyacrylamide gel (PDI [8]): induced a slight increase in molecular mass
3 | O=C(O[C@@H]1Cc2c(O)cc(O)cc2O[C@H]1c1ccc(O)c(O)c1)c1cc(O)c(O)c(O)c1 [Catechin 3-gallate] | > 20 | – | some inhibition, particularly of ERp5 | – | – | activity against ERp5 (in words) (ERp5): had activity against ERp5
4 | Oc1cc(O)c2c(c1)O[C@H](c1cc(O)c(O)c(O)c1)[C@H](O)C2 [EGC, epigallocatechin] | > 500 | – | relatively little activity | – | did not inhibit PDI; also recorded: inactive compounds against PDI | –
5 | O=C(O[C@@H]1Cc2c(O)cc(O)cc2O[C@@H]1c1cc(O)c(O)c(O)c1)c1cc(O)c(O)c(O)c1 [EGCG, epigallocatechin gallate] | 243 | – | relatively little activity | – | did not inhibit PDI; also recorded: inactive compounds against PDI | –
6 | O=C(O)c1cc(O)c(O)c(O)c1 [Gallic Acid, 3,4,5-trihydroxybenzoic acid] | – | – | Neither pinocembrin, gallic acid nor glucose showed substantial activity against thiol isomerases | – | inactive compounds against PDI | IC50 (PDI [1]): > 500 µM; inhibition of PDI (in words) (PDI [1]; listed as gallate): failed to inhibit PDI
7 | O=C1C[C@@H](c2ccccc2)Oc2cc(O)cc(O)c21 [Pinocembrin] | > 500 | – | no activity | – | failed to inhibit PDI | –
8 | O=C(OC[C@H]1O[C@@H](OC(=O)c2cc(O)c(O)c(OC(=O)c3cc(O)c(O)c(O)c3)c2)[C@H](OC(=O)c2cc(O)c(O)c(OC(=O)c3cc(O)c(O)c(O)c3)c2)[C@@H](OC(=O)c2cc(O)c(O)c(OC(=O)c3cc(O)c(O)c(O)c3)c2)[C@@H]1OC(=O)c1cc(O)c(O)c(OC(=O)c2cc(O)c(O)c(O)c2)c1)c1cc(O)c(O)c(OC(=O)c2cc(O)c(O)c(O)c2)c1 [Tannic acid] | 8.5 | inhibited the ability of isolated a′ domain to cleave di-eosin-GSSG | potently inhibited all thiol isomerases tested | 293T-hACE2 and NIC-H460 | inhibit PDI | inhibition of the ability of PDI to reduce insulin (PDI [2]): inhibited the ability of PDI to reduce insulin; inhibition of SARS-CoV-2 / infection (in words) (SARS-CoV-2): blocks SARS-CoV-2 virus infection in 293T cells expressing hACE2; Modeling shows gallic acid interaction with His41 or Glu166 (SARS-CoV-2 M^pro [9]): His41; Glu166; hydrogen bonding with M^pro in published molecular dynamic simulations (SARS-CoV-2 M^pro [9]): hydrogen bonding of TA with M^pro Cys145; antiplatelet activities (platelets): have antiplatelet activities
9 | O=C(O[C@@H]1Cc2c(O)cc(O)cc2O[C@@H]1c1cc(=O)c(O)c2c(O)c(O)cc([C@H]3Oc4cc(O)cc(O)c4C[C@H]3O)c2c1)c1cc(O)c(O)c(O)c1 [Theaflavin 3-gallate] | 3.4 | inhibited the ability of isolated a′ domain to cleave di-eosin-GSSG | strong inhibition of all three thiol isomerases | Vero Cells | – | inhibition of the ability of PDI to reduce insulin (PDI [2]): inhibited the ability of PDI to reduce insulin; IC50 (SARS-CoV-2 M^pro [6]; literature values (Table 2); read-out: SARS-CoV-2 M^pro inhibition; cited from earlier work): 18.5 µM; reduction of viral counts (SARS-CoV-2; Vero cell assay): 75%
10 | O=c1c(O)cc([C@H]2Oc3cc(O)cc(O)c3C[C@H]2O)cc2c([C@H]3Oc4cc(O)cc(O)c4C[C@H]3O)cc(O)c(O)c12 [Theaflavin] | > 500 | – | poor inhibition | – | failed to inhibit PDI; also recorded: inactive compounds against PDI | –
11 | O=c1cc(-c2ccc(O)cc2)oc2cc(O)cc(O)c12 [apigenin, reference compound] | – | – | – | – | – | inhibition of SARS-CoV-2 / infection (in words) (SARS-CoV-2): inhibitors of SARS-CoV-2
12 | Catechin | – | – | – | – | – | activity against ERp5 (in words) (ERp5): had activity against ERp5
13 | theaflavin 3-3′-digallate [Theaflavin 3,3′-gallate] | – | inhibited the ability of isolated a′ domain to cleave di-eosin-GSSG | strong inhibition of all three thiol isomerases | VeroE6/TMPRSS2 | – | inhibition of isolated PDI fragments ([3]; a, ab, b′xa′, abb′ fragments, PGHG at 10 μM): inhibited isolated a and a′ fragments as well as ab, b′xa′ and abb′x fragments

Reference: US20250134853A1, “COMPOUNDS AND METHODS FOR USING GALLOYLATED POLYPHENOLS TO TREAT DISEASES MEDIATED BY THIOL ISOMERASES” (Beth Israel Deaconess Medical Center, Inc., priority 2023, published 2025)
